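Briefly, cells in 96-well plates were exposed to five compound concentrations for 48 h, and endpoints were estimated by linear interpolation. Abbreviation: GI50, concentration required for 50% inhibition of growth. Definition used: TGI = concentration required for complete inhibition of growth.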
How the values were obtained:
Assay in all cases: inhibition of tumour cell growth, NCI panel, 48 h
[1] = test system: MDA-MB-435
[2] = test system: M14 melanoma
[3] = test system: UO-31 renal
[4] = test system: A498 renal
[5] = test system: LOX IMVI melanoma
[6] = test system: OVCAR-5 ovarian
[7] = test system: UACC-62 melanoma
[8] = test system: HCT-15 colon
[9] = test system: SR leukemia
[10] = test system: OVCAR-3 ovarian
[11] = test system: SN12C renal
[12] = test system: KM12 colon
[13] = test system: HCT-116 colon
[14] = test system: MALME-3M melanoma
[15] = test system: OVCAR-8 ovarian
[16] = test system: MDA-MB-231 breast
[17] = test system: HOP-92 NSCLC
[18] = test system: MCF7 breast
[19] = test system: DU-145 prostate
[20] = test system: BT-549 breast
[21] = test system: NCI-H23 lung
[22] = test system: HL-60(TB) leukemia
[23] = test system: UACC-257 melanoma
[24] = test system: SF-268 CNS
[25] = test system: HCC-2998 colon
[26] = test system: SW-620 colon
[27] = test system: CCRF-CEM leukemia
[28] = test system: HT29 colon
[29] = test system: 786-0 renal
[30] = test system: SK-OV-3 ovarian
[31] = test system: NCI-H226 lung
[32] = test system: MOLT-4 leukemia
[33] = test system: T-47D breast
[34] = test system: SNB-19 CNS
[35] = test system: SK-MEL-5 melanoma
[36] = test system: RXF 393 renal
[37] = test system: NCI-H522 lung
[38] = test system: HS 578T breast
[39] = test system: K-562 leukemia
[40] = test system: OVCAR-4 ovarian
[41] = test system: A549 NSCLC
[42] = test system: SNB-75 CNS
[43] = test system: NCI/ADR-RES ovarian
[44] = test system: SK-MEL-28 melanoma
[45] = test system: ACHN renal
[46] = test system: PC-3 prostate
[47] = test system: CAKI-1 renal
[48] = test system: SF-539 CNS
[49] = test system: TK-10 renal
[50] = test system: SK-MEL-2 melanoma
[51] = test system: U251 CNS
[52] = test system: NCI-H460 lung
[53] = test system: EKVX NSCLC
[54] = test system: HOP-62 NSCLC
[55] = test system: COLO 205 colon
[56] = test system: SF-295 CNS
[57] = test system: RPMI-8226 leukemia

Compound: COc1cc2c3c(n(CCCN=[N+]=[N-])c(=O)c2cc1OC)-c1ccc(F)cc1C3=O
- GI50 [1]: 38.1 µM
- TGI [1]: > 100 µM
- GI50 [2]: 5.16 µM
- TGI [2]: > 100 µM
- GI50 [3]: 5.14 µM
- TGI [3]: > 100 µM
- GI50 [4]: 39.6 µM
- TGI [4]: > 100 µM
- GI50 [5]: 4.04 µM
- TGI [5]: > 100 µM
- GI50 [6]: > 100 µM
- TGI [6]: > 100 µM
- GI50 [7]: 5.27 µM
- TGI [7]: > 100 µM
- GI50 [8]: 79.3 µM
- TGI [8]: > 100 µM
- GI50 [9]: 449 nM
- TGI [9]: 2680 nM
- GI50 [10]: 6.11 µM
- TGI [10]: > 100 µM
- GI50 [11]: 8.26 µM
- TGI [11]: > 100 µM
- GI50 [12]: 41.2 µM
- TGI [12]: > 100 µM
- GI50 [13]: 4.2 µM
- TGI [13]: > 100 µM
- GI50 [14]: > 100 µM
- TGI [14]: > 100 µM
- GI50 [15]: 21.2 µM
- TGI [15]: > 100 µM
- GI50 [16]: > 100 µM
- TGI [16]: > 100 µM
- GI50 [17]: 2270 nM
- TGI [17]: 8.15 µM
- GI50 [18]: 3.78 µM
- TGI [18]: > 100 µM
- GI50 [19]: 4.19 µM
- TGI [19]: > 100 µM
- GI50 [20]: 12.4 µM
- TGI [20]: > 100 µM
- GI50 [21]: 14.1 µM
- TGI [21]: > 100 µM
- GI50 [22]: 44.4 µM
- TGI [22]: > 100 µM
- GI50 [23]: > 100 µM
- TGI [23]: > 100 µM
- GI50 [24]: 3.8 µM
- TGI [24]: > 100 µM
- GI50 [25]: 16.3 µM
- TGI [25]: > 100 µM
- GI50 [26]: 6.29 µM
- TGI [26]: > 100 µM
- GI50 [27]: 1990 nM
- TGI [27]: 5.79 µM
- GI50 [28]: 12.3 µM
- TGI [28]: > 100 µM
- GI50 [29]: 2880 nM
- TGI [29]: 14.7 µM
- GI50 [30]: 11.6 µM
- TGI [30]: > 100 µM
- GI50 [31]: 43.2 µM
- TGI [31]: > 100 µM
- GI50 [32]: 2700 nM
- TGI [32]: 28.5 µM
- GI50 [33]: 3.92 µM
- TGI [33]: > 100 µM
- GI50 [34]: 4.35 µM
- TGI [34]: > 100 µM
- GI50 [35]: 4.25 µM
- TGI [35]: 17.9 µM
- GI50 [36]: > 100 µM
- TGI [36]: > 100 µM
- GI50 [37]: 4.89 µM
- TGI [37]: > 100 µM
- GI50 [38]: > 100 µM
- TGI [38]: > 100 µM
- GI50 [39]: 19.3 µM
- TGI [39]: > 100 µM
- GI50 [40]: 55.9 µM
- TGI [40]: > 100 µM
- GI50 [41]: 48 µM
- TGI [41]: > 100 µM
- GI50 [42]: 21.1 µM
- TGI [42]: 90.2 µM
- GI50 [43]: 7.44 µM
- TGI [43]: > 100 µM
- GI50 [44]: 49.2 µM
- TGI [44]: > 100 µM
- GI50 [45]: 3.8 µM
- TGI [45]: > 100 µM
- GI50 [46]: 6.63 µM
- TGI [46]: > 100 µM
- GI50 [47]: 4.56 µM
- TGI [47]: > 100 µM
- GI50 [48]: 3.23 µM
- TGI [48]: 12.4 µM
- GI50 [49]: 73.7 µM
- TGI [49]: > 100 µM
- GI50 [50]: > 100 µM
- TGI [50]: > 100 µM
- GI50 [51]: 4.6 µM
- TGI [51]: 55.6 µM
- GI50 [52]: 1870 nM
- TGI [52]: 13.3 µM
- GI50 [53]: 89.4 µM
- TGI [53]: > 100 µM
- GI50 [54]: 4.18 µM
- TGI [54]: > 100 µM
- GI50 [55]: 23.8 µM
- TGI [55]: > 100 µM
- GI50 [56]: 2620 nM
- TGI [56]: 7.97 µM
- GI50 [57]: 1700 nM
- TGI [57]: 10.8 µM

— PubChem BioAssay (NCI)
